From patent US7692030B2, “Conjugates of artemisinin-related endoperoxides and hydrazone derivatives for the treatment of cancer” (University of Washington, priority 2006, dated 2010)
“Also recorded” adds a separate entry of the source.

Legend:
Assay type in all cases: cell-based
[1] = system: A549/ATCC; assay: NCI DTP human tumor cell line screen (SRB); settings: Non-Small Cell Lung Cancer, 10 μM, 48 h
Summary of the method: (§1)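 Cells plated and preincubated 24 h at 37 °C, 5% CO2, then exposed to compound at 10 μM final for 48 h. Adherent cells fixed with cold TCA, stained with SRB, absorbance read at 515 nm. Percent growth derived from time-zero (Tz), control (C) and treated (Ti) readings.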

[2] = system: DU-145; assay: NCI DTP human tumor cell line screen (SRB); settings: Prostate Cancer, 10 μM, 48 h
Summary of the method: as §1

[3] = system: IGROV1; assay: NCI DTP human tumor cell line screen (SRB); settings: Ovarian Cancer, 10 μM, 48 h
Summary of the method: as §1

[4] = system: RXF 393; assay: NCI DTP human tumor cell line screen (SRB); settings: Renal Cancer, 10 μM, 48 h
Summary of the method: as §1

[5] = system: Molt-4 human leukemia cells; assay: Cell count of Molt-4 human leukemia cells over time; settings: FIG. 11; [ART-Phe-Sal]=10 mM, [DHA]=10 μM, [ART-Tf]=12 μM; cells counted at different times
Procedure: Molt-4-lymphoblastoid cells were purchased from the American Type Culture Collection (Rockville, Md.). They are acute lympoblastic leukemia cells from human peripheral blood. Cultures were maintained in RPMI-1640 (Gibco, Long Island, N.Y.) supplemented with 10% fetal bovine serum (Hyclone, New Haven, Conn.). Cells were cultured at 37° C. in 5% CO2/95% air and 100% humidity, and were split 1:2 at a concentration of approximately 1×10^6/mL. Approximate cell numbers before experiment were between 150×10^3 to 300×10^3 per mL.
FIG. 11 compares the effects of ART-Phe-Sal, DHA, and artemisinin-tagged holotransferrin (ART-Tf) on Molt-4 human leukemia cell.

[6] = system: DAOY medulloblastoma cells; assay: DAOY medulloblastoma cells, MTT assay and light microscopy
Procedure: The compound ART-Phe-Sal was tested on DAOY medulloblastoma cells using the MTT assay. DAOY Medulloblastoma cells (5,000 cells/200 μL) was seeded on a 96 well plate and incubated for 24 h at 37° C. Cell culture medium was removed after 24 h and 150 μL of medium with treatment was added. Each experimental treatment had holo-Tf (20 μg/well). Treatment assay was viewed under light microscope after 24 h.
Treatment medium was removed after 48 h, and 100 μL of cell medium was added. MTT Reagent (10 μL, 12 mM) was added to each well. This solution was incubated at 37° C. for 4 h. Isopropanol (100 μL) was added to each well to lyse the cells, which were then incubated at 4° C. for 30 m. After incubation each well was plunged (3×200 μL) to ensure the cells were lysed. The incubated medium with MTT reagent was then centrifuged at 13,000 RPM in an eppendorph centrifuge for 3 minutes at room temperature. 100 μL of supernatant was read in a plate reader at λ=570 nm. FIG. 13 compares the effect of dihydroartemisinin (DHA) and ART-Phe-Sal on DAOY medulloblastoma cell line. The concentration of holo-Tf was 1.7 μM.

Compound | Growth Percent [1] [%] | Growth Percent [2] [%] | Growth Percent [3] [%] | Growth Percent [4] [%] | effect on Molt-4 human leukemia cells (cell count, words) [5] | activity against DAOY medulloblastoma cells ([6]; FIG. 13, MTT assay, 48 h treatment, holo-Tf 1.7 μM) | cell shrinkage under light microscope ([6]; after 24 h treatment, each treatment had holo-Tf (20 μg/well))
Cc1ncc(CO)c(C=NNC(=O)c2ccc(COC3OC4OC5(C)CCC6C(C)CCC(C3C)C46OO5)cc2)c1O (stereo not shown) [ART-Phe-Pyridoxal, N′-(5-hydroxy-3-hydroxymethyl-2-methyl-4-pyridylidene)-4-(dihydroxyartemisinin-methyl)-phenyl carbohydrazide] | 26.36 | −9.65 | 1.58 | 35.07 | – | – | –
CC1CCC2C(C)C(OCc3ccc(C(=O)NN=Cc4ccccc4O)cc3)OC3OC4(C)CCC1C32OO4 (stereo not shown) [ART-Phe-Sal, N′-(2-hydroxybenzylidene)-4-(dihydroxyartemisinin-methyl)-phenyl carbohydrazide] | – | – | – | – | can effectively kill human leukemia cells; also recorded: more potent than either dihydroartemisinin (DHA) or artemisinin-tagged holotransferrin (ART-Tf) | active against DAOY medulloblastoma cells | Moderate cell shrinkage
